{"source": "patent US20240082196A1", "about": "“COMBINED USE OF UBENIMEX AND IMMUNE CHECKPOINT INHIBITOR” (NIPPON KAYAKU KABUSHIKI KAISHA, priority 2021, published 2024)", "key": {"[1]": {"test_system": "mouse colon adenocarcinoma cells MC38", "assay": "antitumor effect in MC38 subcutaneous transplantation model", "format": "in vivo", "settings": "25 days after transplantation", "protocol": "The antitumor effect of the combined administration of ubenimex and the anti-mouse PD-1 antibody was evaluated with a subcutaneous transplantation model of the mouse colon adenocarcinoma cells MC38.\nThen, 1×10^5 MC38 cells were subcutaneously transplanted into female C57BL/6N mice (Charles River Laboratories Japan, Inc.) to produce the subcutaneous transplantation model. Ubenimex was orally administered to each subcutaneous transplantation model mouse of MC38 in a dosage of 0.5 or 5 mg/kg once a day, 24 times in total, from the day following the transplantation to 24 days after the transplantation. Furthermore, the anti-mouse PD-1 antibody was intraperitoneally administered in a dosage of 50 μg/body 7, 11, 14, 18, 21, and 24 days after the transplantation. […]\nThe major axis and the minor axis of the tumors were measured with a digital micrometer caliper (Mitutoyo Corporation), and the tumor volumes (mm 3) were calculated by the expression “major axis×minor axis^2/2”. The relative tumor volume (T/C) of each treated group to the control group was calculated by the expression “average tumor volume of the test substance-treated group/average tumor volume of control group×100” using the tumor volume value 25 days after the transplantation. […]"}, "[2]": {"assay": "mouse blood concentration transition, single oral administration", "format": "in vivo", "settings": "for AUC(0-inf) / Cmax / MRT inf / Tmax: fasted female C57BL/6N mice, plasma", "protocol": "First, 9 nine-week-old fasted female C57BL/6N mice (Charles River Laboratories Japan, Inc.) in each group were subjected to the single oral administration of 5 mg/kg or 50 mg/kg of ubenimex. Blood collecting time points were 9 time points that were time points 5, 10, and 30 minutes, 1, 3, 6, 8, 12, and 24 hours after the administration. Then, 0.1 mL of blood was collected from the jugular vein under isoflurane anesthesia from 5 minutes to 6 hours after the administration, and the whole blood was collected from the vena cava under isoflurane anesthesia 8 hours or more after the administration. To secure n=3 at each time point, the blood collection was sparse blood collection in which blood was collected from one individual at 3 time points, and three animals were replaced as one set. Plasma was prepared from the obtained blood, and the plasma ubenimex concentration was measured with a liquid chromatography mass spectrometer (LC/MS/MS)."}, "Tregs": {"test_system": "Tregs", "assay": "immunophenotyping of lymphocytes in peripheral blood by flow cytometry, B16-F0 model", "format": "in vivo, mouse", "settings": "ubenimex alone", "protocol": "The blood collected by the autopsies after the confirmation of the antitumor effects was analyzed for lymphocytes in peripheral blood by flow cytometry.\nThe peripheral blood was subjected to hemolysis treatment with a Lysing Buffer to prepare peripheral blood mononuclear cells (PBMCs), the Fc receptors were then blocked with the anti-mouse CD16/32 antibody, and the cell surface markers CD45, CD3, CD4, CD8, and CD25 were stained. The PBMCs were fixed and permeabilized, and the nuclear factor FOXP3 was stained, and measurement was performed with the flow cytometer LSRII (Becton, Dickinson and Company).\nTregs identified using CD45+, CD3+, CD4+, CD25+, and FOXP3+ were used as indices for evaluation. The existence rate of Tregs in CD45-positive cells was calculated, and the number of Tregs per 1 μL of the peripheral blood was calculated from the value of the total white blood cell count."}, "[3]": {"test_system": "mouse melanoma cells B16-F0", "assay": "antitumor effect in B16-F0 subcutaneous transplantation model", "format": "in vivo", "settings": "15 days after transplantation", "protocol": "The antitumor effect of the combined administration of ubenimex and the anti-mouse PD-1 antibody was evaluated with a model in which the mouse melanoma cells B16-F0 were subcutaneously transplanted. Fluctuation in cytokines and immune system markers was confirmed at the same time.\nFirst, 2×10^5 B16-F0 were subcutaneously transplanted to female C57BL/6N mice (Charles River Laboratories Japan, Inc.) to produce a subcutaneous transplantation model.\nUbenimex was orally administered to subcutaneous transplantation model B16-F0 mice once a day, 14 times in total, in a dosage of 5 or 50 mg/kg from the day following the transplantation to 14 days after transplantation. Furthermore, an anti-mouse PD-1 antibody was intraperitoneally administered in a dosage of 200 μg/body 4, 7, 11, and 14 days after the transplantation. […]\nThe major axis and the minor axis of the tumors were measured with a digital micrometer caliper (Mitutoyo Corporation), and the tumor volumes (mm 3) were calculated by the expression “major axis×minor axis^2/2”. The relative tumor volume (T/C) of each treated group to the control group was calculated by the expression “average tumor volume of the test substance-treated group/average tumor volume of control group×100” using the tumor volume value 15 days after the transplantation. […]"}, "[4]": {"settings": "ubenimex 5 mg/kg oral once daily"}}, "data": [{"smiles": "CC(C)C[C@H](NC(=O)[C@@H](O)[C@H](N)Cc1ccccc1)C(=O)O", "note": "[ubenimex, (2S)-2-[(2S,3R)-3-amino-2-hydroxy-4-phenylbutanoylamino]-4-methylpentanoic acid]", "values": [{"measurement": "relative average tumor volume (T/C) to the control group", "setting": "[1]; ubenimex 0.5 mg/kg oral once daily", "result": 62, "unit": "%"}, {"measurement": "relative average tumor volume (T/C) to the control group", "setting": "[1]; [4]", "result": 51, "unit": "%"}, {"measurement": "dosage proportionality", "setting": "[2]; dosage of 5 to 50 mg/kg in the mouse", "result": "dosage proportionality was generally obtained"}, {"measurement": "AUC(0-inf)", "setting": "[2]; mouse, 5 mg/kg single oral", "result": 3240, "unit": "ng·h/mL"}, {"measurement": "Cmax", "setting": "[2]; mouse, 5 mg/kg single oral", "result": 4600, "unit": "ng/mL"}, {"measurement": "MRT inf", "setting": "[2]; mouse, 5 mg/kg single oral", "result": 52.3, "unit": "min"}, {"measurement": "Tmax", "setting": "[2]; mouse, 5 mg/kg single oral", "result": 4.98, "unit": "min"}, {"measurement": "AUC(0-inf)", "setting": "[2]; mouse, 50 mg/kg single oral", "result": 47700, "unit": "ng·h/mL"}, {"measurement": "Cmax", "setting": "[2]; mouse, 50 mg/kg single oral", "result": 44000, "unit": "ng/mL"}, {"measurement": "MRT inf", "setting": "[2]; mouse, 50 mg/kg single oral", "result": 55.1, "unit": "min"}, {"measurement": "Tmax", "setting": "[2]; mouse, 50 mg/kg single oral", "result": 10.2, "unit": "min"}, {"measurement": "AUCinf, ratio of 50 mg/5 mg", "setting": "[2]; single oral, mouse", "result": 14.7, "unit": "times"}, {"measurement": "Cmax, ratio of 50 mg/5 mg", "setting": "[2]; single oral, mouse", "result": 9.57, "unit": "times"}, {"measurement": "MRTinf, ratio of 50 mg/5 mg", "setting": "[2]; single oral, mouse", "result": 1.05, "unit": "times"}, {"measurement": "numbers of Tregs in the peripheral blood", "setting": "Tregs", "result": "no change"}, {"measurement": "relative average tumor volume (T/C) to the control group", "setting": "[3]; [4]", "result": "did not exhibit tumor growth inhibition effect"}, {"measurement": "relative average tumor volume (T/C) to the control group", "setting": "[3]; ubenimex 50 mg/kg oral once daily", "result": "did not exhibit tumor growth inhibition effect"}]}]}
